According to patent publication US8841312B2, “Fused pyridine, pyrimidine and triazine compounds as cell cycle inhibitors” (Amgen Inc., priority 2007, dated 2014):

What was measured:
[1] = system: neointima formation; details: animal models; cited from earlier work
[2] = target: Cdk4/CyclinD1 (Homo sapiens (Human), UniProt P11802); experiment: Cdk4 kinase inhibition assay with recombinant Cdk4/CyclinD1, Rb substrate, [33P]-ATP filter plate; type: biochemical; details: 25 μM ATP, read-out: Cdk 4 IC50
Procedure, shortened: (§1)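 Recombinant Cdk4/CyclinD1 or Cdk6/CyclinD3 phosphorylated Rb protein with [33P]-ATP for 1 h at room temperature. Protein was TCA-precipitated on filter plates and bound radioactivity counted. IC50 by nonlinear regression.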

[3] = target: Cdk6/CyclinD3 (Homo sapiens (Human), UniProt Q00534); experiment: Cdk6 kinase inhibition assay with recombinant Cdk6/CyclinD3, Rb substrate, [33P]-ATP filter plate; type: biochemical; details: 25 μM ATP, read-out: Cdk 6 IC50
Procedure, shortened: as §1

Chain of Cdk4/CyclinD1 (P11802 whole entry): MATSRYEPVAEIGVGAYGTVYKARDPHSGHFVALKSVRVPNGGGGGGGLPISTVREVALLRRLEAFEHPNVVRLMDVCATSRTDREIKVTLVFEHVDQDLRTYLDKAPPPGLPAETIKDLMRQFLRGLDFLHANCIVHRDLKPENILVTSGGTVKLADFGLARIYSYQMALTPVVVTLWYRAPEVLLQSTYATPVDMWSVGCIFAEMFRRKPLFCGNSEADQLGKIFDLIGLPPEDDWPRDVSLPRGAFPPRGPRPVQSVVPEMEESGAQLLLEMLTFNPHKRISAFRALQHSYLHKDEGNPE
Chain of Cdk4/CyclinD1 (P24385 whole entry partner): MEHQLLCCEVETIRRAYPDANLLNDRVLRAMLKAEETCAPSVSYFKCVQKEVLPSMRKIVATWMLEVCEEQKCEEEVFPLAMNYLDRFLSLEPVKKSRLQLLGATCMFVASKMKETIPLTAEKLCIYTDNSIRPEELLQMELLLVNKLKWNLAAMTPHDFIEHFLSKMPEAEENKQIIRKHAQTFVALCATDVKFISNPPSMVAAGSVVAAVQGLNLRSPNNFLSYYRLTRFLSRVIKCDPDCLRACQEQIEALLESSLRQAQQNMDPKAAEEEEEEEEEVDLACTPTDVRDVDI
Chain of Cdk6/CyclinD3 (Q00534 whole entry): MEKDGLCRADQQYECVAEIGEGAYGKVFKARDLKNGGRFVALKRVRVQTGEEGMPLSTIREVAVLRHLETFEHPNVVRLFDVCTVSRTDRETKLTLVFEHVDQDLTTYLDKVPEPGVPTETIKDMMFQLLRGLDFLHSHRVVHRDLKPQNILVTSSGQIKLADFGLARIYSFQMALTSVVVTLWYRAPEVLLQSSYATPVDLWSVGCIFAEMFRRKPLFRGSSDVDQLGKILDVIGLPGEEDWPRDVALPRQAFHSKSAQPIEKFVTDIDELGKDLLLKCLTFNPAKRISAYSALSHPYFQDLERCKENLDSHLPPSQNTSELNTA
Chain of Cdk6/CyclinD3 (P30281 whole entry partner): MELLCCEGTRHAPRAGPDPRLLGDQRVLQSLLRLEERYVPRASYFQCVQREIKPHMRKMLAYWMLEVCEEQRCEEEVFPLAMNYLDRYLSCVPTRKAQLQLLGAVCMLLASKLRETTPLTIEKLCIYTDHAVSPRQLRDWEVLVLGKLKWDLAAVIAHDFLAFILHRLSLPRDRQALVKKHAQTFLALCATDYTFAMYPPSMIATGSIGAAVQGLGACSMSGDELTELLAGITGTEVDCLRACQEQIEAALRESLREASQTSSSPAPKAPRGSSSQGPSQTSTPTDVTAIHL

| Compound | IC50 [2] [nM] | IC50 [3] [nM] | inhibition of neointima formation [1] |
| --- | --- | --- | --- |
| COc1ccc(CNc2nc(N(CCO)CCO)nc3c2ncn3C(C)C)cc1 [CVT-313] | – | – | significant inhibition of neointima formation |
| C1=C(c2ccc(Nc3ncc4c5ccncc5n(C5CCCC5)c4n3)nc2)CCNC1 [Example 256, 9-Cyclopentyl-N-(1′,2′,3′,6′-tetrahydro-3,4′-bipyridin-6-yl)-9H-pyrido[4′,3′:4,5]pyrrolo[2,3-d]pyrimidin-2-amine] | 1.3 | 7 | – |
| CN(C)CCN(C)C1CCN(c2ccc(Nc3ncc4c5ccncc5n(C5CCCC5)c4n3)nn2)CC1 [Example 479] | 8 | 17 | – |
| CC[C@@H](C)n1c2cnccc2c2cnc(Nc3ccc(N4CCN[C@@H](C)C4)cn3)nc21 [Example 321] | 7 | 11 | – |
| CN1CCN(c2ccc(Nc3ncc4c5ccccc5n(C5CCCC5)c4n3)nc2)CC1 [Example 298] | 40 | 8 | – |
| O[C@@H]1CCN(C2CCN(c3ccc(Nc4ncc5c6ccncc6n(C6CCCC6)c5n4)nn3)CC2)C1 [Example 449] | 12 | 36 | – |
| Cc1cc(N2CCNCC2)cnc1Nc1ncc2c3ccncc3n(C3CCCC3)c2n1 [Example 51, 9-cyclopentyl-N-(3-methyl-5-(1-piperazinyl)-2-pyridinyl)-9H-pyrido[4′,3′:4,5]pyrrolo[2,3-d]pyrimidin-2-amine] | 126 | 406 | – |
| C[C@@H](CO)Nc1ccc(Nc2ncc3c4ccncc4n(C4CCCC4)c3n2)nn1 [Example 296] | 5.5 | 14 | – |
| Oc1cc2c3cnc(Nc4ccc(N5CCNCC5)cn4)nc3n(C3CCCC3)c2cn1 [Example 43, 9-Cyclopentyl-2-(5-piperazin-1-yl-pyridin-2-ylamino)-9H-pyrido[4′,3′:4,5]pyrrolo[2,3-d]pyrimidin-6-ol] | 136 | 218 | – |
| O[C@@H]1CCN(c2ccc(Nc3ncc4c5ccccc5n(C5CCCC5)c4n3)nc2)C1 [Example 304] | 46 | 27 | – |
| c1cc2c3cnc(Nc4ccc(N5CCCNCC5)nn4)nc3n(C3CCCC3)c2cn1 [Example 117] | 5.5 | 6.8 | – |
| C1=C(c2ccc(Nc3ncc4c5ccncc5n(C5CCCC5)c4n3)nn2)CCNC1 [Example 255, 9-Cyclopentyl-N-(6-(1,2,3,6-tetrahydro-4-pyridinyl)-3-pyridazinyl)-9H-pyrido[4′,3′:4.5]pyrrolo[2,3-d]pyrimidin-2-amine] | 5.6 | 60 | – |
| O=C(O)c1ccc(Nc2ncc3c4ccnc(O)c4n(C4CCCC4)c3n2)nc1 [Example 224, 6-((9-cyclopentyl-8-hydroxy-9H-pyrido[4′,3′:4,5]pyrrolo[2,3-d]pyrimidin-2-yl)amino)-3-pyridinecarboxylic acid] | 520 | 860 | – |
| Oc1nccc2c3cnc(Nc4ccc(CN5CCNCC5)cn4)nc3n(C3CCCC3)c12 [Example 214, 9-cyclopentyl-2-((5-(1-piperazinylmethyl)-2-pyridinyl)amino)-9H-pyrido[4′,3′:4,5]pyrrolo[2,3-d]pyrimidin-8-ol] | 14 | 21 | – |
| CN(C)C1CCN(c2ccc(Nc3ncc4c5ccncc5n(C5CCC5)c4n3)nc2)CC1 [Example 341] | 21 | 16 | – |

Now from value to compound, other results behind:

| IC50 [2] [nM] | IC50 [3] [nM] | Compound | inhibition of neointima formation [1] |
| --- | --- | --- | --- |
| 1.7 | 3.8 | C[C@@H](O)CNC1CCN(c2ccc(Nc3ncc4c5ccncc5n(C5CCCC5)c4n3)nn2)CC1 [Example 441] | – |
| 3.9 | 11.5 | C[C@@H]1CN(c2ccc(Nc3ncc4c5ccncc5n(C5CCCC5)c4n3)nn2)CCN1 [Example 4] | – |
| 4.4 | 8.2 | OC1CCN(Cc2ccc(Nc3ncc4c5ccncc5n(C5CCCC5)c4n3)nc2)CC1 [Example 215, 1-((6-((9-cyclopentyl-9H-pyrido[4′,3′:4,5]pyrrolo[2,3-d]pyrimidin-2-yl)amino)-3-pyridinyl)methyl)-4-piperidinol] | – |
| 2 | 3.7 | c1ccc2c(c1)c1cnc(Nc3ccc(N4CCNCC4)cc3)nc1n2C1CCCC1 [Example 47, (9-Cyclopentyl-9H-pyrimido[4,5-b]indol-2-yl)-(4-piperazin-1-yl-phenyl)-amine] | – |
| 2.1 | 3.1 | c1ccc2c(c1)c1cnc(Nc3ccc(N4CCNCC4)cn3)nc1n2C1CCCCCC1 [Example 39, (9-Cycloheptyl-9H-pyrimido[4,5-b]indol-2-yl)-(5-piperazin-1-yl-pyridin-2-yl)-amine] | – |
| 4.8 | 5.1 | OCCNC1CCN(c2ccc(Nc3ncc4c5ccncc5n(C5CCCC5)c4n3)nc2)CC1 [Example 458] | – |
| 5.3 | 8.9 | CC1(n2c3cnccc3c3cnc(Nc4ccc(N5CCNCC5)cn4)nc32)CCC1 [Example 33, [9-(1-Methyl-cyclobutyl)-9H-pyrido[4′,3′:4,5]pyrrolo[2,3-d]pyrimidin-2-yl]-(5-piperazin-1-yl-pyridin-2-yl)-amine] | – |
| 1 | 3.3 | O=C(O)CN1CCN(Cc2ccc(Nc3ncc4c5ccncc5n(C5CCCC5)c4n3)nc2)CC1 [Example 220, (4-((6-((9-cyclopentyl-9H-pyrido[4′,3′:4,5]pyrrolo[2,3-d]pyrimidin-2-yl)amino)-3-pyridinyl)methyl)-1-piperazinyl)acetic acid] | – |
